# From patent US4347319A, “Microbiological epoxidation process” (priority 1980, dated 1982)
# Like-named read-outs stand apart in the source and are kept apart here.
# Columns and labels:
# [1] = test system: Methylobacter bovis CRL 19 NRRL B-11,217; experiment: Sec. alcohol oxidation by cell suspensions of methanol-grown cells; format: cell-based; conditions: sec. alcohol to methyl ketone
# [2] = test system: Methylobacter chroococcum CRL M6 NRRL B-11,214; experiment: as above; format: cell-based; conditions: sec. alcohol to methyl ketone
# [3] = test system: Methylobacter vinelandii CRL M5Y NRRL B-11,218; experiment: as above; format: cell-based; conditions: sec. alcohol to methyl ketone
# [4] = test system: Methylobacterium organophilum CRL 26 NRRL B-11,222; experiment: as above; format: cell-based; conditions: sec. alcohol to methyl ketone
# [5] = test system: Methylococcus capsulatus CRL 25 NRRL B-11,221; experiment: as above; format: cell-based; conditions: sec. alcohol to methyl ketone
# [6] = test system: Methylococcus capsulatus CRL M1 NRRL B-11,219; experiment: as above; format: cell-based; conditions: sec. alcohol to methyl ketone
# [7] = test system: Methylocystis parvus CRL 18 NRRL B-11,204; experiment: as above; format: cell-based; conditions: sec. alcohol to methyl ketone
# [8] = test system: Methylomonas methanica CRL M4P NRRL B-11,205; experiment: as above; format: cell-based; conditions: sec. alcohol to methyl ketone
# [9] = test system: Methylomonas streptobacterium CRL 17 PM3 NRRL B-11,208; experiment: as above; format: cell-based; conditions: sec. alcohol to methyl ketone
# [10] = test system: Methylosinus trichosporium CRL 15 NRRL B-11,202; experiment: as above; format: cell-based; conditions: sec. alcohol to methyl ketone
# [11] = test system: cell-free soluble extract of Methylobacterium organophilium CRL 26 (NRRL B 11,222); conditions: NAD added
# Experimental: (§1) To prepare the cell-free secondary alcohol dehydrogenous (SADH) system, the washed cells were disrupted with a Wave Energy Ultrasonic Oscillator, Model W201 (Wave Energy System, Inc., Newtown, Pa.) and centrifuged at 20,000×g. for 30 minutes. […] The enzyme activity was measured with a fluorescence spectrophotometer (Perkin Elmer, Model MPF 44A) by following the formation of reduced NAD (EX 340 nm, Em 460 nm). The formation of reduced NAD was also followed with an absorption spectrophotometer at 340 nm. The assay system (3 ml.) contained: potassium phosphate buffer pH 7.0; 150 μmol.; NAD 1 μmol.; a given amount of enzyme preparation; and secondary alcohol 10 μmol. The reaction was started by the addition of substrate. One unit of enzyme activity represents the reduction of one μmole NAD per minute. Protein concentrations were determined by the Lowry method as referenced above.
# (§2) The experimental procedure for the tests reported in Table XVII were as follows: 1 mg protein of crude extract was added into a 0.5 ml. 0.05 M phosphate buffer (pH 7.0) in a 10-ml. vial. […] The reaction mixture was incubated at 30° C. on a water bath. A 3 μl sample was removed with a syringe at 15 min. of incubation and was assayed with g.l.c. Catalytic activity was also assayed by fluorescence spectrophotometry.
# [12] = test system: cell-free soluble extract of Methylococcus capsulatus CRL M1 (NRRL B-11,219); conditions: NAD added
# Experimental: as §1, §2
# [13] = test system: cell-free soluble extract of Methylosinus trichosporium OB3b (NRRL B-11,196); conditions: NAD added
# Experimental: as §1, §2
# [14] = test system: Hansenula polymorpha ATCC 26012; experiment: Oxidation of sec-alcohols to ketones by cell suspensions of yeasts; format: cell-based; conditions: sec-alcohol to methyl ketone
# Pichia sp. NRRL-Y-11328 = experiment: as above; format: cell-based; conditions: sec-alcohol to methyl ketone
# [15] = test system: methylotrophic microorganism strains of the present invention grown on methanol; experiment: Comparative test with methanol-grown washed cell suspensions; format: cell-based
# [16] = test system: Methylocystis parvus (CRL 18 PM4) NRRL B-11,204; experiment: Oxidation by washed cell suspensions of methane-grown cells; format: cell-based; conditions: methane-grown washed cells, 30° C.; methane to methanol, alkene to 1,2-epoxide
# How it was run: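 Methane/air (1:1)-grown cells, 30 °C, 2 d; harvested, washed 2× in 0.15 M phosphate pH 7.0 + 0.002 M MgCl2. 2 mg cells/vial, gas phase substrate:O2 1:1 v/v, 30 °C, 300 rpm. GC-FID read-out over time.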
smiles,measurement,setting,value
CCC(C)O (stereo not shown) [2-Butanol],Conversion Rates,[1],1.8 μmoles/hr/mg protein
same,Conversion Rates,[2],1.4 μmoles/hr/mg protein
same,Conversion Rates,[3],2.0 μmoles/hr/mg protein
same,Conversion Rates,[4],2.5 μmoles/hr/mg protein
same,Conversion Rates,[5],0.95 μmoles/hr/mg protein
same,Conversion Rates,[6],2.0 μmoles/hr/mg protein
same,Conversion Rates,[7],1.0 μmoles/hr/mg protein
same,Conversion Rates,[8],2.5 μmoles/hr/mg protein
same,Conversion Rates,[9],2.0 μmoles/hr/mg protein
same,Conversion Rates,[10],4.5 μmoles/hr/mg protein
same,Conversion Rate 2-butanol to 2-butanone,[11]; growth substrate CH3 OH,2.5 nmoles/min/mg protein
same,Conversion Rate 2-butanol to 2-butanone,[11]; growth substrate CH4,1.8 nmoles/min/mg protein
same,Conversion Rate 2-butanol to 2-butanone,[12]; growth substrate CH3 OH,2.0 nmoles/min/mg protein
same,Conversion Rate 2-butanol to 2-butanone,[12]; growth substrate CH4,3.2 nmoles/min/mg protein
same,Conversion Rate 2-butanol to 2-butanone,[13]; growth substrate CH3 OH,2.4 nmoles/min/mg protein
same,Conversion Rate 2-butanol to 2-butanone,[13]; growth substrate CH4,4.5 nmoles/min/mg protein
same,Conversion Rate,[14]; growth substrate Ethanol,4.8 μmoles/hr/mg of protein
same,Conversion Rate,[14]; growth substrate Methanol,5.8 μmoles/hr/mg of protein
same,Conversion Rate,[14]; growth substrate Methylamine,4.5 μmoles/hr/mg of protein
same,Conversion Rate,[14]; growth substrate Methylformate,5.2 μmoles/hr/mg of protein
same,Conversion Rate,[14]; growth substrate Propylamine,4.0 μmoles/hr/mg of protein
same,Conversion Rate,Pichia sp. NRRL-Y-11328; growth substrate Ethanol,6.2 μmoles/hr/mg of protein
same,Conversion Rate,Pichia sp. NRRL-Y-11328; growth substrate Methanol,6.8 μmoles/hr/mg of protein
same,Conversion Rate,Pichia sp. NRRL-Y-11328; growth substrate Methylamine,5.1 μmoles/hr/mg of protein
same,Conversion Rate,Pichia sp. NRRL-Y-11328; growth substrate Methylformate,6.9 μmoles/hr/mg of protein
same,Conversion Rate,Pichia sp. NRRL-Y-11328; growth substrate Propylamine,2.1 μmoles/hr/mg of protein
C [Methane],hydroxylation / epoxidation ability,[15],did not possess the ability
C=CC [Propylene],Oxidative Conversion Rates,[16],1.5 μmole/hr/mg protein
